In article PMC8175240, “Integrase-derived peptides together with CD24-targeted lentiviral particles inhibit the growth of CD24 expressing cancer cells” (Oncogene, 2021):
Residues, ends and D or L forms follow the SMILES beside them.

Columns and labels:
H1975 lung cancer cells = experiment: Cytotoxicity of peptides without lentiviral particles, MTT; format: cell-based, human; details: peptide alone, three times over ten days
Description: H1975 lung cancer cells were treated three times over the course of 10 days (on days 2, 4, and 7) with different concentrations of the tested peptides. Following ten days of incubation, cells were analyzed for potential toxicity using a quantitative cell viability test, the MTT assay.

HeLa cells = test system: HeLa cells; design: method as in PMID 20517955; details: cited from earlier work
CHO-WBL cells = experiment: Chromosomal aberration assay (genotoxicity); format: cell-based, Chinese hamster; details: for % Gaps / % Structural aberration without gaps / Cells with endoreduplication (%) / Cells with polyploidy (%) / Cytotoxicity (%) / % Structural aberrant cells: harvest 22 h; for Cytotoxicity (%): cell growth inhibition relative to negative control; for % Structural aberrant cells: cells with only gaps not included
Description: All cells were cultured for 22 h after initiation of INS treatment.

[1] = INS 10 µg/mL, +S9, 3 h treatment
[2] = INS 10 µg/mL, −S9, 3 h treatment
[3] = INS 10 µg/mL, −S9, 22 h treatment
[4] = INS 25 µg/mL, +S9, 3 h treatment
[5] = INS 25 µg/mL, −S9, 3 h treatment
[6] = INS 25 µg/mL, −S9, 22 h treatment
[7] = INS 50 µg/mL (precipitate), +S9, 3 h treatment
[8] = INS 50 µg/mL (precipitate), −S9, 3 h treatment
[9] = INS 50 µg/mL (precipitate), −S9, 22 h treatment

For `CC[C@H](C)[C@H](NC(=O)[C@H](Cc1ccccc1)NC(=O)[C@@H](NC(=O)[C@H](C)NC(=O)[C@H](CCSC)NC(=O)[C@H](CCC(N)=O)NC(=O)[C@@H](NC(=O)[C@H](C)NC(=O)[C@@H](NC(=O)[C@@H](N)Cc1c[nH]c2ccccc12)[C@@H](C)O)C(C)C)C(C)C)C(=O)N[C@@H](Cc1c[nH]cn1)C(=O)N[C@@H](CC(N)=O)C(=O)N[C@@H](Cc1ccccc1)C(=O)N[C@@H](CCCCN)C(=O)N[C@@H](CCCNC(=N)N)C(=O)N[C@@H](CCCCN)C(=O)O` [INS] (H-WTAVQMAVFIHNFKRK-OH), the “Effect on lung cancer cell viability” value (H1975 lung cancer cells) is listed as “no effect”, the “Cell permeability” value (HeLa cells) is listed as “cell-permeable” and the “Toxicity” value (HeLa cells) is listed as “non-toxic”. The “Induction of structural chromosomal aberrations (conclusion)” value (CHO-WBL cells; 10-50 µg/mL, ±S9, 3 and 22 h) was “negative”, the “% Gaps” value (CHO-WBL cells; [1]) was 0.3% and the “% Structural aberration without gaps” value (CHO-WBL cells; [1]) was 1.0%. The “Cells with endoreduplication (%)” value (CHO-WBL cells; [1]) was 0.0%, the “Cells with polyploidy (%)” value (CHO-WBL cells; [1]) was 0.0% and the “Cytotoxicity (%)” value (CHO-WBL cells; [1]) was 5%. For the same compound, the “% Structural aberrant cells” value (CHO-WBL cells; [1]) was 1.0%, the “% Gaps” value (CHO-WBL cells; [2]) was 0.7% and the “% Structural aberration without gaps” value (CHO-WBL cells; [2]) was 1.3%. The “Cells with endoreduplication (%)” value (CHO-WBL cells; [2]) was 0.0%, the “Cells with polyploidy (%)” value (CHO-WBL cells; [2]) was 0.0% and the “Cytotoxicity (%)” value (CHO-WBL cells; [2]) was 4%. For the same compound, the “% Structural aberrant cells” value (CHO-WBL cells; [2]) was 1.3%, the “% Gaps” value (CHO-WBL cells; [3]) was 0.7% and the “% Structural aberration without gaps” value (CHO-WBL cells; [3]) was 1.0%. For the same compound, the “Cells with endoreduplication (%)” value (CHO-WBL cells; [3]) was 0.0%, the “Cells with polyploidy (%)” value (CHO-WBL cells; [3]) was 0.0% and the “Cytotoxicity (%)” value (CHO-WBL cells; [3]) was −1%. The “% Structural aberrant cells” value (CHO-WBL cells; [3]) was 1.0%, the “% Gaps” value (CHO-WBL cells; [4]) was 0.3% and the “% Structural aberration without gaps” value (CHO-WBL cells; [4]) was 1.0%. The “Cells with endoreduplication (%)” value (CHO-WBL cells; [4]) was 0.3%, the “Cells with polyploidy (%)” value (CHO-WBL cells; [4]) was 0.0% and the “Cytotoxicity (%)” value (CHO-WBL cells; [4]) was −1%. For the same compound, the “% Structural aberrant cells” value (CHO-WBL cells; [4]) was 1.0%, the “% Gaps” value (CHO-WBL cells; [5]) was 0.3% and the “% Structural aberration without gaps” value (CHO-WBL cells; [5]) was 1.0%. The “Cells with endoreduplication (%)” value (CHO-WBL cells; [5]) was 0.3%, the “Cells with polyploidy (%)” value (CHO-WBL cells; [5]) was 0.0% and the “Cytotoxicity (%)” value (CHO-WBL cells; [5]) was −10%. The “% Structural aberrant cells” value (CHO-WBL cells; [5]) was 1.0%, the “% Gaps” value (CHO-WBL cells; [6]) was 0.0% and the “% Structural aberration without gaps” value (CHO-WBL cells; [6]) was 1.0%. For the same compound, the “Cells with endoreduplication (%)” value (CHO-WBL cells; [6]) was 0.0%, the “Cells with polyploidy (%)” value (CHO-WBL cells; [6]) was 0.0% and the “Cytotoxicity (%)” value (CHO-WBL cells; [6]) was −3%. The “% Structural aberrant cells” value (CHO-WBL cells; [6]) was 1.0%, the “% Gaps” value (CHO-WBL cells; [7]) was 0.3% and the “% Structural aberration without gaps” value (CHO-WBL cells; [7]) was 1.7%. For the same compound, the “Cells with endoreduplication (%)” value (CHO-WBL cells; [7]) was 7.3%, the “Cells with polyploidy (%)” value (CHO-WBL cells; [7]) was 0.0% and the “Cytotoxicity (%)” value (CHO-WBL cells; [7]) was 46%. For the same compound, the “% Structural aberrant cells” value (CHO-WBL cells; [7]) was 1.7%, the “% Gaps” value (CHO-WBL cells; [8]) was 0.7% and the “% Structural aberration without gaps” value (CHO-WBL cells; [8]) was 1.3%. For the same compound, the “Cells with endoreduplication (%)” value (CHO-WBL cells; [8]) was 0.0%, the “Cells with polyploidy (%)” value (CHO-WBL cells; [8]) was 0.0% and the “Cytotoxicity (%)” value (CHO-WBL cells; [8]) was −7%. The “% Structural aberrant cells” value (CHO-WBL cells; [8]) was 1.3%, the “% Gaps” value (CHO-WBL cells; [9]) was 0.3% and the “% Structural aberration without gaps” value (CHO-WBL cells; [9]) was 1.3%. For the same compound, the “Cells with endoreduplication (%)” value (CHO-WBL cells; [9]) was 0.0%, the “Cells with polyploidy (%)” value (CHO-WBL cells; [9]) was 0.0% and the “Cytotoxicity (%)” value (CHO-WBL cells; [9]) was −1%. The “% Structural aberrant cells” value (CHO-WBL cells; [9]) was 1.3%.
